Some test systems named below: HT29 colon; IGROV1 ovarian; SW-620 colon; SF-268 CNS; OVCAR-8 ovarian; SF-539 CNS; MOLT-4 leukemia; K-562 leukemia; OVCAR-5 ovarian; TK-10 renal.
Holding throughout (experiment): growth of human tumour cells (NCI), 48 h

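48-hour exposure; five concentrations; linearly interpolated endpoints. GI50 = concentration required for 50% inhibition of growth. Definition used: TGI = concentration required for complete inhibition of growth.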 Where a SMILES comes first, the peptide text is derived from it. [ ]: non-standard residue; d: D form. The star is where a group is joined. ξ: configuration not given here. 4Abz = Nc1ccc(C(=O)O)cc1; ξL = CC(C)CC(N)C(=O)O; NHOH = ON* Bounds are passed on as bounds.

Consider `COC1=C(C(=O)OC(C)(C)C)C23CCCCC2(C(C(=O)OC(C)(C)C)=C(OC)C3C(=O)OC(C)(C)C)C1C(=O)OC(C)(C)C` (stereo not drawn), for which the TGI in the assay on HT29 colon, with IGROV1 ovarian, in the assay with SW-620 colon, in the assay with SF-268 CNS, in the assay with OVCAR-8 ovarian and in the assay with SF-539 CNS was above 100 µM in each case. The TGI in the assay on MOLT-4 leukemia is 44.4 µM; in the assay on K-562 leukemia, above 100 µM; in the assay on OVCAR-5 ovarian, above 100 µM; with TK-10 renal, above 100 µM.
For the compound `COc1cc2c(cc1OC)[C@@H]1[C@H](C2=O)c2ccc([N+](=O)[O-])cc2C(=O)N1CCCBr`, the GI50 with HT29 colon is 0.35 µM; in the assay on IGROV1 ovarian it was below 0.01 µM; in the assay on SW-620 colon, 0.213 µM; in the assay on OVCAR-8 ovarian, 0.0169 µM; in the assay on SF-539 CNS it was 0.387 µM; with MOLT-4 leukemia it was below 0.018 µM. Further, the results for the GI50 with K-562 leukemia, in the assay with OVCAR-5 ovarian and in the assay on TK-10 renal were 1.26 µM, 1.64 µM and 1.28 µM, respectively. Besides, the TGI with IGROV1 ovarian is 1.93 µM; in the assay with SW-620 colon, above 100 µM; in the assay on SF-268 CNS, above 39.4 µM; in the assay with OVCAR-8 ovarian, 2.04 µM; in the assay with SF-539 CNS it was 2.29 µM; with K-562 leukemia, above 100 µM. Besides, the figures for the TGI in the assay with OVCAR-5 ovarian and with TK-10 renal were above 100 µM and 41.1 µM, respectively.
Turning to `Clc1cc(Cl)c2n[se]nc2c1`, the TGI in the assay with HT29 colon, with IGROV1 ovarian, in the assay with SW-620 colon, in the assay with SF-268 CNS, in the assay with OVCAR-8 ovarian and in the assay with SF-539 CNS was above 100 µM each time. Further, the TGI in the assay with MOLT-4 leukemia, in the assay with K-562 leukemia, in the assay on OVCAR-5 ovarian and in the assay with TK-10 renal was above 100 µM throughout.
For the compound `CC(=O)O/N=C1\C=Cc2c(no[n+]2[O-])C1=O`, the TGI with HT29 colon came out at 32.4 µM; in the assay on IGROV1 ovarian it was 30.3 µM; in the assay with SW-620 colon it was 9.04 µM; in the assay with SF-268 CNS, 38.1 µM; in the assay with OVCAR-8 ovarian, 25.4 µM; in the assay with SF-539 CNS it was 31.3 µM. The TGI was 36.6 µM in the assay with MOLT-4 leukemia, above 100 µM with K-562 leukemia, 32.7 µM in the assay with OVCAR-5 ovarian and 29 µM with TK-10 renal.
`CC(=O)c1c[nH]c2ccc(-c3ccnc(Nc4ccc(NC(=O)c5cccc(F)c5)c(CN5CCOCC5)c4)n3)cc12`: the GI50 was 0.146 µM in the assay with HT29 colon; 0.151 µM in the assay on IGROV1 ovarian; 0.206 µM in the assay with SW-620 colon; 0.225 µM with SF-268 CNS; 0.255 µM with OVCAR-8 ovarian; 0.0809 µM in the assay with SF-539 CNS. Moreover, the GI50 was 0.262 µM with MOLT-4 leukemia, 0.303 µM in the assay with K-562 leukemia, 0.129 µM in the assay with OVCAR-5 ovarian and 0.268 µM in the assay with TK-10 renal. Also, the TGI was 1.69 µM with IGROV1 ovarian; 4.82 µM in the assay with SW-620 colon; 2.49 µM in the assay on SF-268 CNS; above 100 µM in the assay on OVCAR-8 ovarian; 0.457 µM in the assay with SF-539 CNS; above 100 µM in the assay with MOLT-4 leukemia. Further, the TGI in the assay on K-562 leukemia is above 100 µM; with OVCAR-5 ovarian, 1.06 µM; with TK-10 renal it was 1.95 µM.
In the case of `COC1=CC(=O)c2c(O)c3c(c(O)c2C1=O)CC(C)(O)OC3` (stereo not drawn), the TGI with HT29 colon is 11.6 µM; in the assay on IGROV1 ovarian, 7.94 µM; in the assay with SW-620 colon, 12.7 µM; in the assay on SF-268 CNS it was above 100 µM; in the assay on OVCAR-8 ovarian it was 8.65 µM; with SF-539 CNS, 9.66 µM. The TGI in the assay with MOLT-4 leukemia was 8.68 µM; in the assay with K-562 leukemia, above 45.3 µM; in the assay on OVCAR-5 ovarian, 14.6 µM; with TK-10 renal it was 34.4 µM.
In the case of `CC(C)CC(NC(=O)[C@@H]1CCCN1C(=O)CNC(=O)c1ccc(N)cc1)C(=O)N[C@H](C)C(=O)NO` (stereo partly drawn) (H-[4Abz]GP[ξL][dA]-{NHOH}), the GI50 with HT29 colon, in the assay on IGROV1 ovarian, with SW-620 colon, in the assay with SF-268 CNS, with OVCAR-8 ovarian and in the assay with SF-539 CNS was above 100 µM each time. Also, the GI50 in the assay with MOLT-4 leukemia, with K-562 leukemia, in the assay with OVCAR-5 ovarian and in the assay with TK-10 renal was above 100 µM each time. Besides, the TGI in the assay with HT29 colon, in the assay with IGROV1 ovarian, with SW-620 colon, in the assay with SF-268 CNS, in the assay on OVCAR-8 ovarian and with SF-539 CNS was above 100 µM each time. Further, the TGI in the assay with MOLT-4 leukemia, in the assay with K-562 leukemia, in the assay with OVCAR-5 ovarian and with TK-10 renal was above 100 µM in each case.
`COc1cc(C2CC(c3ccc(C)cc3)=NN2C(C)=O)ccc1Oc1ccnc2cc(Cl)ccc12` (stereo not drawn): the GI50 was above 100 µM in the assay on HT29 colon; 38.2 µM in the assay with IGROV1 ovarian; above 100 µM in the assay on SW-620 colon; 38.4 µM in the assay on SF-268 CNS; 11.7 µM in the assay on SF-539 CNS; above 100 µM in the assay with MOLT-4 leukemia. The GI50 in the assay with K-562 leukemia and with OVCAR-5 ovarian was above 100 µM each time. The TGI in the assay with HT29 colon, in the assay with IGROV1 ovarian, in the assay with SW-620 colon, in the assay on SF-268 CNS, in the assay on SF-539 CNS and in the assay with MOLT-4 leukemia was above 100 µM throughout. Also, the TGI with K-562 leukemia and in the assay on OVCAR-5 ovarian was above 100 µM each time.
For the compound `Cc1cc(C)c(-c2noc(-c3ccc(Cl)cc3)c2C2=NCCN2)c(C)c1`, the TGI with HT29 colon was 34.2 µM; in the assay with IGROV1 ovarian, 76.7 µM; in the assay with SW-620 colon, above 100 µM; with SF-268 CNS it was 37.4 µM; in the assay with SF-539 CNS, 32 µM; with MOLT-4 leukemia it was 41.3 µM. The TGI in the assay with K-562 leukemia was 37.4 µM; in the assay with OVCAR-5 ovarian, above 100 µM.
For `S=c1sc2ccccc2n1CN1CCN(Cc2ccccc2)CC1`, the TGI with HT29 colon, with IGROV1 ovarian, with SW-620 colon, in the assay with SF-268 CNS, with OVCAR-8 ovarian and in the assay on SF-539 CNS was above 100 µM each time. In addition, the TGI in the assay with MOLT-4 leukemia, with K-562 leukemia and in the assay on OVCAR-5 ovarian was above 100 µM throughout.
In the case of `CCC(C)CNC1=C(NC(C)=O)C(=O)c2ccccc2C1=O` (stereo not drawn), the TGI in the assay with HT29 colon, with IGROV1 ovarian, with SW-620 colon, in the assay with SF-268 CNS, in the assay on OVCAR-8 ovarian and with SF-539 CNS was above 100 µM in each case. Besides, the TGI in the assay on MOLT-4 leukemia, in the assay with K-562 leukemia and with TK-10 renal was above 100 µM each time.

The values above are taken from PubChem BioAssay (NCI).
